Series [1] can be described thus: placebo controlled, dose-ranging clinical study of oral tramadol HCl in men with severe premature ejaculation. It counts as in vivo, human. As to conditions: percentages based on total drug exposures for the three doses, 2 to 5 hours before intercourse. Here is the method:
See U.S. Pat. No. 6,974,839, Safarinejad et al., J. Clin. Psychopharmacol., 26(1):27-31 (February 2006) and Salem et al., J. Sex. Med., 5(1):188-193 (January 2008). A placebo controlled, dose-ranging clinical study that enrolled more than 60 male volunteers with severe premature ejaculation who self administered three different doses of oral tramadol HCl 2 to 5 hours before sexual intercourse was performed on behalf of DMI BioSciences, Inc., Aurora, Colo. […] However, the patient reported outcome responses in this study also reported the following previously unreported mild or moderate adverse events (percentages based on total drug exposures for the three doses): erectile dysfunction (8%-14%), anorgasmia (3%-7%), and penile hypoesthesia (4%-5%). Less common unexpected, drug-related mild or moderate adverse events were decreased libido (<1%-2%) and decreased orgasmic sensation (0-<1%). These mild or moderate adverse events related to sexual activity were generally dose-dependent and occurred more frequently in men 40 years of age and older.

A short description of series [2]: volunteer study of adverse events: tramadol HCl alone or combined with sildenafil citrate and naltrexone HCl before sexual intercourse. The protocol: In particular, three healthy, heterosexual male subjects (mean age 57) signed informed consents and volunteered to self administer oral tramadol HCl 100 mg 2 to 5 hours before sexual intercourse and to record any adverse events. At other times, these volunteers self administered oral tramadol HCl 25 to 100 mg combined with oral sildenafil citrate 50 mg or oral sildenafil citrate 50 mg plus oral naltrexone HCl 2.5 to 10 mg 2 to 5 hours before sexual intercourse and recorded any adverse effects.

The conditions of series [3]: used for analgesia; cited from earlier work.
The mark [4] stands for this setting: tramadol HCl 100 mg alone, % of total drug exposures, three volunteers.

Counter-ions that a name gives are not always drawn.

Consider `COc1cccc([C@]2(O)CCCC[C@H]2CN(C)C)c1` (racemic) [tramadol HCl, (±) cis-2-[(dimethylamino)methyl]-1-(3-methoxyphenyl)-cyclohexanol hydrochloride], for which, in series [1], the “anorgasmia (mild or moderate adverse event)” value is 3%-7%, the “decreased libido (mild or moderate adverse event)” value was <1%-2%, the “erectile dysfunction (mild or moderate adverse event)” value is recorded as 8%-14% and the “penile hypoesthesia (mild or moderate adverse event)” value was 4%-5%. In addition, the serious adverse events result in series [2] (oral, 2 to 5 hours before sexual intercourse) is recorded as “No serious adverse events occurred”. In series [2] (setting [4]), the anorgasmia is 29%, the constipation is 71%, the decreased libido turned out to be 43% and the decreased orgasmic sensation was 57%. Further, in series [2] (setting [4]), the dizziness came out at 14%, the dry mouth turned out to be 57%, the erectile dysfunction was 43% and the fatigue came out at 14%. Also, in series [2] (setting [4]), the insomnia was found to be 71%, the itching is 57%, the nasal congestion worked out at 57% and the nausea was 14%. Further, in series [2] (setting [4]), the penile hypoesthesia came to 43% and the restlessness worked out at 29%. In addition, the “mild or moderate adverse events, 100 mg dose compared with 25 mg” value in series [2] (tramadol HCl alone, oral) is on record as “substantially more”.

Take `COc1cccc(C2(O)CCCCC2CN(C)C)c1` (stereo not shown) [Tramadol, 2-[(dimethylamino)methyl]-1-(3-methoxyphenyl)-cyclohexanol]: in series [3], the “incidence of reported side effects (dizziness, nausea, constipation, headache, somnolence, vomiting, pruritis, CNS stimulation, asthenia, sweating, dyspepsia, dry mouth, diarrhea)” value was at least 5%.

In the case of `O=C1CC[C@@]2(O)[C@H]3Cc4ccc(O)c5c4[C@@]2(CCN3CC2CC2)[C@H]1O5` [naltrexone], the “effectiveness of tramadol in delaying ejaculation” value in series [2] (naltrexone 2.5 mg to 10 mg given with tramadol) is reported as “did not reduce”.

The values above are taken from patent US20120018333A1, “Reducing Side Effects of Tramadol” (priority 2007, published 2012).
